Consider 28 compounds from patent US8759333B2, “Di-azetidinyl diamide as monoacylglycerol lipase inhibitors” (Janssen Pharmaceutica, NV, priority 2010, dated 2014).

Experiment [1] has as its target T1, mutant MGL (mut-MGLL 11-313 L179S L186S) (Homo sapiens, UniProt Q99685, L169S/L176S).
T1 construct: purified mutant MGL (mut-MGLL 11-313 L179S L186S)
T1 sequence (Q99685 1-303 L169S/L176S): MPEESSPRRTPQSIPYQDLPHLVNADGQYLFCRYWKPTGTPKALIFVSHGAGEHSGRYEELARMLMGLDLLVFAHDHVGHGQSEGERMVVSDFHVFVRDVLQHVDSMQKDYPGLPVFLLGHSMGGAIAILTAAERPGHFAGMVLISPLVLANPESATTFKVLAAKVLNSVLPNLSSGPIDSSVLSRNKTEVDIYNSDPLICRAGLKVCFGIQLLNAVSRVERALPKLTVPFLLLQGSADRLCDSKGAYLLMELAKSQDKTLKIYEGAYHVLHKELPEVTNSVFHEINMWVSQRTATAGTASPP
Kind of experiment: MGL Enzyme Activity Assay, purified mutant MGL, 4MU-B substrate. As to conditions: mutant MGL 5 nM, 4MU-B 10 μM, 37° C.; read-out: MGL mutant inh IC50. Format: biochemical. The protocol: All rate-based assays were performed in black 384-well polypropylene PCR microplates (Abgene) in a total volume of 30 μL. Substrate 4-methylumbelliferyl butyrate (4MU-B; Sigma) and either purified mutant MGL (mut-MGLL 11-313 L179S L186S) or purified wild type MGL (wt-MGLL 6H-11-313) were diluted separately into 20 mM PIPES buffer (pH=7.0), containing 150 mM NaCl and 0.001% Tween 20. Compounds of Formula (I), including Formulas I(a), I(b), and I(c), were pre-dispensed (50 nL) into the assay plate using a Cartesian Hummingbird prior to adding 4MU-B (25 μL of 1.2× solution to a final concentration of 10 μM) followed by enzyme (5 μL of a 6× solution to a final concentration of 5 nM) to initiate the reaction. Final compound concentrations ranged from 17 to 0.0003 μM. The fluorescence change due to 4MU-B cleavage was monitored with excitation and emission wavelengths of 335 and 440 nm, respectively, and a bandwidth of 10 nm (Safire^2, Tecan) at 37° C. for 5 min.
The IC50 values for the following compounds were determined using Microsoft Office Excel from a fit of the equation to the concentration-response plot of the fractional activity as a function of inhibitor concentration.

Another experiment has as its target T2, MGL (Rattus norvegicus, UniProt Q8R431).
T2 construct: one g rat brain was homogenized using a Polytron homogenizer; from tissue; host or cells: rat brain homogenate
T2 sequence (Q8R431 1-303): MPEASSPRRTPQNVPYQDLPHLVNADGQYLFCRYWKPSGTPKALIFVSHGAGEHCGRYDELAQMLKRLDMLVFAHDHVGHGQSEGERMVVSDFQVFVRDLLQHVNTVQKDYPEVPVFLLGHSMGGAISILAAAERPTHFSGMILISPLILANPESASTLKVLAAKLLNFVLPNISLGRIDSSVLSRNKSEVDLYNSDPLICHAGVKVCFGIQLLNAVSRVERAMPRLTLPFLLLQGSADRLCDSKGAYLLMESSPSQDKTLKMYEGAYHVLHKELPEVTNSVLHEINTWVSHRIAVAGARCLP
Kind of experiment: 2-AG Accumulation Assay in rat brain homogenate. As to conditions: compound @10 µM, percent of vehicle, read-out: Rat Brain 2AG % VehCntrl (%) @10 µM. In kind it is biochemical.

By IC50 is commonly meant the concentration that gives 50% inhibition. As to `O=C(NC1CN(C2CN(C(=O)c3ccc4cc(-c5ccccc5)ccc4c3)C2)C1)c1nccs1` [Cpd 21, N-{1′-[(6-Phenylnaphthalen-2-yl)carbonyl]-1,3′-biazetidin-3-yl}-1,3-thiazole-2-carboxamide], the IC50 in experiment [1] was 69 nM. The activity at 10 µM at MGL worked out at 581%.

As to `O=C(NC1CN(C2CN(C(=O)c3cc4ccc(Br)cc4s3)C2)C1)c1nccs1` [Cpd 23, N-{1′-[(6-Bromo-1-benzothiophen-2-yl)carbonyl]-1,3′-biazetidin-3-yl}-1,3-thiazole-2-carboxamide], in experiment [1], the concentration for half-maximal inhibition (IC50) came to 93 nM. For the same compound, the activity at 10 µM on MGL came out at 343%.

Take `O=C(c1ccc2nc(-c3ccc(Cl)cc3)oc2c1)N1CC(N2CC(N3Cc4ccccc4C3=O)C2)C1` [Cpd 88, 2-(1′-{[2-(4-Chlorophenyl)-1,3-benzoxazol-6-yl]carbonyl}-1,3′-biazetidin-3-yl)-2,3-dihydro-1H-isoindol-1-one]: the IC50 in experiment [1] amounted to 96 nM. Moreover, at MGL, the activity at 10 µM came out at 294%.

In the case of `Cc1c(C(=O)N2CC(N3CC(NC(=O)c4nccs4)C3)C2)sc2ccc(Cl)cc12` [Cpd 15, N-{1′-[(5-Chloro-3-methyl-1-benzothiophen-2-yl)carbonyl]-1,3′-biazetidin-3-yl}-1,3-thiazole-2-carboxamide], the IC50 in experiment [1] turned out to be 28 nM. The activity at 10 µM on MGL amounted to 611%.

`O=C(NC1CN(C2CN(C(=O)c3ccc4nc(-c5ccc(C(F)(F)F)cc5)oc4c3)C2)C1)c1nccs1` [Cpd 30, N-[1′-({2-[4-(Trifluoromethyl)phenyl]-1,3-benzoxazol-6-yl}carbonyl)-1,3′-biazetidin-3-yl]-1,3-thiazole-2-carboxamide]: the IC50 in experiment [1] stood at 264 nM.

Turning to `O=C(c1ccc2cc(Br)ccc2c1)N1CC(N2CC(N3Cc4ccccc4C3=O)C2)C1` [Cpd 90, 2-{1′-[(6-Bromonaphthalen-2-yl)carbonyl]-1,3′-biazetidin-3-yl}-2,3-dihydro-1H-isoindol-1-one], the half-inhibitory concentration (IC50) in experiment [1] came out at 154 nM.

Take `O=C(NC1CN(C2CN(C(=O)c3ccc4oc(-c5ccccc5)nc4c3)C2)C1)c1nccs1` [Cpd 35, N-{1′-[(2-Phenyl-1,3-benzoxazol-5-yl)carbonyl]-1,3′-biazetidin-3-yl}-1,3-thiazole-2-carboxamide]: the 50% inhibitory concentration (IC50) in experiment [1] came out at 341 nM.

Consider `O=C(NC1CN(C2CN(C(=O)c3ccc(-c4ccccc4)cc3)C2)C1)c1nccs1` [Cpd 29, N-[1′-(Biphenyl-4-ylcarbonyl)-1,3′-biazetidin-3-yl]-1,3-thiazole-2-carboxamide], for which, in experiment [1], the IC50 worked out at 184 nM.

Regarding `O=C(c1ccccc1)c1ccc(C(=O)N2CC(N3CC(NC(=O)c4nccs4)C3)C2)cc1` [Cpd 38, N-(1′-{[4-(Phenylcarbonyl)phenyl]carbonyl}-1,3′-biazetidin-3-yl)-1,3-thiazole-2-carboxamide], the half-inhibitory concentration (IC50) in experiment [1] is 588 nM.

`O=C(NC1CN(C2CN(C(=O)c3cc4ccc(-c5ccccc5)cc4s3)C2)C1)c1nccs1` [Cpd 6, N-{1′-[(6-Phenyl-1-benzothiophen-2-yl)carbonyl]-1,3′-biazetidin-3-yl}-1,3-thiazole-2-carboxamide]: the 50% inhibitory concentration (IC50) in experiment [1] came out at 8 nM.

As for `O=C(NC1CN(C2CN(C(=O)c3cc4cc(C(F)(F)F)ccc4s3)C2)C1)c1ccccc1` [Cpd 44, N-(1′-{[5-(Trifluoromethyl)-1-benzothiophen-2-yl]carbonyl}-1,3′-biazetidin-3-yl)benzamide], in experiment [1], the half-maximal inhibitory concentration (IC50) is 1830 nM.

Regarding `O=C(NC1CN(C2CN(C(=O)c3ccc4cc(Br)ccc4c3)C2)C1)c1nccs1` [Cpd 40, N-{1′-[(6-Bromonaphthalen-2-yl)carbonyl]-1,3′-biazetidin-3-yl}-1,3-thiazole-2-carboxamide], the half-maximal inhibitory concentration (IC50) in experiment [1] came to 882 nM.

Consider `O=C(c1ccc(Cc2cccc(C(F)(F)F)c2)cc1)N1CC(N2CC(N3Cc4ccccc4C3=O)C2)C1` [Cpd 86, 2-[1′-({4-[3-(Trifluoromethyl)benzyl]phenyl}carbonyl)-1,3′-biazetidin-3-yl]-2,3-dihydro-1H-isoindol-1-one], for which the IC50 in experiment [1] was determined as 50 nM. The activity at 10 µM at MGL was determined as 447%.

Regarding `CN(C(=O)c1nccs1)C1CN(C2CN(C(=O)c3cc4ccc(C(F)(F)F)cc4s3)C2)C1` [Cpd 37, N-Methyl-N-(1′-{[6-(trifluoromethyl)-1-benzothiophen-2-yl]carbonyl}-1,3′-biazetidin-3-yl)-1,3-thiazole-2-carboxamide], in experiment [1], the IC50 was found to be 476 nM.

For `O=C(NC1CN(C2CN(C(=O)c3ccc4nc(-c5ccccc5)oc4c3)C2)C1)c1ccccc1` [Cpd 41, N-{1′-[(2-Phenyl-1,3-benzoxazol-6-yl)carbonyl]-1,3′-biazetidin-3-yl}benzamide], the IC50 in experiment [1] was 939 nM.

Consider `O=C(NC1CN(C2CN(C(=O)c3ccc4nc(-c5ccc(Cl)cc5)oc4c3)C2)C1)c1nccs1` [Cpd 33, N-(1′-{[2-(4-Chlorophenyl)-1,3-benzoxazol-6-yl]carbonyl}-1,3′-biazetidin-3-yl)-1,3-thiazole-2-carboxamide], for which the half-inhibitory concentration (IC50) in experiment [1] amounted to 303 nM.

Regarding `O=C(c1ccc2c(Br)cccc2c1)N1CC(N2CC(N3Cc4ccccc4C3=O)C2)C1` [Cpd 83, 2-{1′-[(5-Bromonaphthalen-2-yl)carbonyl]-1,3′-biazetidin-3-yl}-2,3-dihydro-1H-isoindol-1-one], the IC50 in experiment [1] turned out to be 23 nM. Also, the activity at 10 µM at MGL came out at 416%.

Regarding `O=C(c1ccc(Br)cc1)N1CC(N2CC(N3Cc4ccccc4C3=O)C2)C1` [Cpd 96, 2-{1′-[(4-Bromophenyl)carbonyl]-1,3′-biazetidin-3-yl}-2,3-dihydro-1H-isoindol-1-one], the 50% inhibitory concentration (IC50) in experiment [1] was 4670 nM.

`O=C(NC1CN(C2CN(C(=O)c3ccc4cc(-c5ccccc5)ccc4c3)C2)C1)c1ccccc1` [Cpd 34, N-{1′-[(6-Phenylnaphthalen-2-yl)carbonyl]-1,3′-biazetidin-3-yl}benzamide]: the IC50 in experiment [1] was determined as 332 nM.

Regarding `O=C(NC1CN(C2CN(C(=O)c3ccc(Cc4ccc(C(F)(F)F)cc4)cc3)C2)C1)c1ccccc1` [Cpd 26, N-[1′-({4-[4-(Trifluoromethyl)benzyl]phenyl}carbonyl)-1,3′-biazetidin-3-yl]benzamide], the IC50 in experiment [1] amounted to 157 nM.

In the case of `O=C(NC1CN(C2CN(C(=O)c3ccc4nc(-c5ccccc5)sc4c3)C2)C1)c1cscn1` [Cpd 22, N-{1′-[(2-Phenyl-1,3-benzothiazol-6-yl)carbonyl]-1,3′-biazetidin-3-yl}-1,3-thiazole-4-carboxamide], the IC50 in experiment [1] is 86 nM.

As to `O=C(NC1CN(C2CN(C(=O)c3ccc4c(-c5ccccc5)cccc4c3)C2)C1)c1ccccc1` [Cpd 25, N-{1′-[(5-Phenylnaphthalen-2-yl)carbonyl]-1,3′-biazetidin-3-yl}benzamide], the IC50 in experiment [1] turned out to be 154 nM.

On to `O=C(c1ccc(N2CCCCC2)cc1)N1CC(N2CC(N3Cc4ccccc4C3=O)C2)C1` [Cpd 91, 2-{1′-[(4-Piperidin-1-ylphenyl)carbonyl]-1,3′-biazetidin-3-yl}-2,3-dihydro-1H-isoindol-1-one], for which the IC50 in experiment [1] came out at 236 nM.

For the compound `Cc1c(C(=O)N2CC(N3CC(NC(=O)c4ccccc4)C3)C2)sc2ccc(Cl)cc12` [Cpd 36, N-{1′-[(5-Chloro-3-methyl-1-benzothiophen-2-yl)carbonyl]-1,3′-biazetidin-3-yl}benzamide], the concentration for half-maximal inhibition (IC50) in experiment [1] amounted to 458 nM.

On to `O=C(NC1CN(C2CN(C(=O)c3ccc4nc(-c5cccc(C(F)(F)F)c5)oc4c3)C2)C1)c1nccs1` [Cpd 28, N-[1′-({2-[3-(Trifluoromethyl)phenyl]-1,3-benzoxazol-6-yl}carbonyl)-1,3′-biazetidin-3-yl]-1,3-thiazole-2-carboxamide], for which the 50% inhibitory concentration (IC50) in experiment [1] is 180 nM.

Take `O=C(c1ccc(-c2cc3ccccc3s2)cc1)N1CC(N2CC(N3Cc4ccccc4C3=O)C2)C1` [Cpd 95, 2-(1′-{[4-(1-Benzothiophen-2-yl)phenyl]carbonyl}-1,3′-biazetidin-3-yl)-2,3-dihydro-1H-isoindol-1-one]: the IC50 in experiment [1] turned out to be 750 nM.

For the compound `O=C(NC1CN(C2CN(C(=O)c3ccc(Oc4ccccc4)cc3)C2)C1)c1nccs1` [Cpd 32, N-{1′-[(4-Phenoxyphenyl)carbonyl]-1,3′-biazetidin-3-yl}-1,3-thiazole-2-carboxamide], in experiment [1], the 50% inhibitory concentration (IC50) worked out at 287 nM.

On to `O=C(NC1CN(C2CN(C(=O)c3ccc4cc(Br)ccc4c3)C2)C1)c1ccccc1` [Cpd 42, N-{1′-[(6-Bromonaphthalen-2-yl)carbonyl]-1,3′-biazetidin-3-yl}benzamide], for which the IC50 in experiment [1] is 997 nM.
